Among the data in patent publication US6900200B2, “Tricyclic hydroxy carboxamides and derivatives thereof tocolytic oxytocin receptor antagonists” (Wyeth, priority 2001, dated 2005) are inhibition and IC50 values, retold here.

pIC50: −log10 of the molar value.

The target of the first assay is T1, human oxytocin receptor (Homo sapiens, UniProt P30559).
T1 construct: host or cells: CHO cells, pcDNA3.1 vector
T1 sequence (P30559 1-389): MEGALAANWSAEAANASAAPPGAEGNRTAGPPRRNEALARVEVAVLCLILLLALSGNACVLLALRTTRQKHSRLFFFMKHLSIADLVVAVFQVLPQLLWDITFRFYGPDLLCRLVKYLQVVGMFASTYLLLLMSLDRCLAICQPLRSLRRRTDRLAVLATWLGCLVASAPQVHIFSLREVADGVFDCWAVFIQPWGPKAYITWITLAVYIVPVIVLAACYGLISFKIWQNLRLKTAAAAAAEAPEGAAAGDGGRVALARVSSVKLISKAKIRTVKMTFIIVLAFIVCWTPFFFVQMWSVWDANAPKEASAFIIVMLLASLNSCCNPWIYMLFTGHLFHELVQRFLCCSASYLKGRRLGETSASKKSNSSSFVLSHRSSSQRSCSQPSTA
Put plainly: Oxytocin binding in CHO cell membranes expressing human oxytocin receptors ([3H]oxytocin radioligand binding). The settings on record: @ 100 nM, read-out: OT % inhibition @ 100 nM. The source says: Oxytocin Binding in Chinese Hamster Ovary Cell Membranes Expressing Human Oxytocin Receptors
Chinese Hamster Ovary (CHO) cells stably transfected with the human oxytocin receptor (cf. Tanizawa et al., U.S. Pat. No. 5,466,584 (1995) to Rohto Pharmaceutical Co. Ltd., Osaka, Japan) were obtained from M. Thibonnier, Case Western Reserve University School of Medicine, Cleveland, Ohio.
A. Passaging and Amplification of Cells
CHO cells transfected with the human oxytocin receptors obtained from M. Thibonnier (pcDNA3.1 vector) are allowed to grow to confluency (approx. >90%) in T-150 flasks under sterile conditions, in a cell culture medium of F-12 Nutrient Mixture (HAM) with L-glutamine (Gibco Cat. #11765-054) containing 15 mM HEPES (Gibco Cat. #15630-080), 1% antibiotic/antimycotic (add 5 mL 100×, Gibco Cat. #15240-062 per 500 mL F-12), 400 μg/mL of Geneticin (add 4 mL of 50 mg/mL per 500 mL F-12) and 10% Fetal Bovine Serum (Qualified, heat inactivated, Gibco Cat. #16140-063). The medium is removed by aspiration and the cells are washed with 10 mL of Hank's Balanced Salt solution (Gibco Cat. #14175-095). The salt solution is removed by aspiration and the cells trypsinized with 5 mL of trypsin-EDTA (0.05% trypsin, 0.53 mM EDTA-4Na, Gibco Cat. #25300-070) for 1 min. The trypsin is removed by aspiration and the cells dislodged by tapping. Cell Culture medium (e.g. 30 mL for 1:30 split) is immediately added and mixed well to inactivate trypsin. 1 mL of detached cells is added to new culture flasks containing fresh Cell Culture medium (e.g. into 25 mL per T-150 flask), and mixed gently. The cells are incubated at 37° C. in 5% CO2. The medium is changed at 3 to 4 days interval (or as appropriate). The cells grow to confluency (approx. >75%-95%) within 7-8 days. All steps are done under sterile conditions.
The cells are washed twice gently with Hank's Balanced Salt solution (e.g., use 10 mL per T-1 50 flask). The excess solution is removed and the cells bathed for 15-30 min. in an enzyme-free Cell Dissociation Buffer (e.g., use 8 mL Hank's Based, Gibco Cat. #13150-016 per T-150 flask) until cells are loosened. The contents are transferred to centrifuge tubes (50 mL size) kept in ice bath. All subsequent steps are done at 4° C. The tubes are centrifuged at 300×g for 15 min (1380 rpm on SORVAL, Model RT6000D, using rotor for 50 mL tubes). The supernatant is discarded and the cells suspended in homogenizing buffer (10 mM Tris-HCl containing 0.25 M sucrose and 1 mM EDTA, pH 7.4) ensuring that the volume of the buffer is about ten times the volume of the cell pellet. The cells are pooled into a centrifuge tube (50 mL) and homogenized with a Polytron at setting 6 for 10 sec. The homogenate is transferred into a Potter-Elvjehm homogenizer and homogenized with 3 strokes. The homogenate is centrifuged at 1500×g for 10 min at 4° C. (3100 rpm using SORVAL, model RT6000D, using rotor for 50 mL tubes). The pellet is discarded. The supernatant is centrifuged at 100,000×g for 60 min. at 4° C. (Beckman L8-80M ultracentrifuge; spin at 37,500 rpm with rotor type 70 Ti for 50 mL tubes; 38,000 rpm with type 80Ti for 15 mL tubes; or 35,800 rpm with rotor type 45Ti). The supernantant is discarded and the pellet suspended in 3 to 4 mL of Tris buffer (50 mM TRIS—HCl, pH 7.4). The protein content is estimated by the Bradford or Lowry method. The volume of the membrane suspension is adjusted with the membrane buffer (50 mM Tris-HCl containing 0.1% BSA and 0.1 mM PMSF) to give 3.0 mg/mL (or as appropriate) of protein. The membranes are aliquoted and stored at −70° C.
C. Radioligand Binding Assay
In wells of a 96-well format microtiter plate, is added 90, 110 or 130 μL (to make up a final volume of 200 μL) of assay buffer containing 50 mM of Tris-HCl (pH 7.4), […], 1 mg % aprotinin, 1 mg % leupeptin, 2 mg % 1,10-phenanthroline, 10 mg % trypsin inhibitor, and 0.1 mM PMSF. […]
On to `COc1cc(C(=O)N2Cc3ccc(C(=O)N4CCN(CCO)CC4)n3Cc3ccccc32)ccc1-c1cccc2ccccc12` [Example 41, [4-(2-Hydroxyethyl)-1-piperazinyl]{10-[3-methoxy-4-(1-naphthyl)benzoyl]-10,11-dihydro-5H-pyrrolo[2,1-c][1,4]benzodiazepin-3-yl}methanone], for which the inhibition at 0.1 µM stood at 71%.

As for `COc1cc(C(=O)N2Cc3ccc(C(=O)N4CCN(CCO)CC4)n3Cc3ccccc32)ccc1-n1c(C)ccc1C` [Example 52, {10-[4-(2,5-Dimethyl-1H-pyrrol-1-yl)-3-methoxybenzoyl]-10,11-dihydro-5H-pyrrolo[2,1-c][1,4]benzodiazepin-3-yl}[4-(2-hydroxyethyl)-1-piperazinyl]methanone], the inhibition at 0.1 µM came to 36%.

In the case of `Cc1ccccc1-c1ccc(C(=O)N2Cc3ccc(C(=O)N4CCN(CCO)CC4)n3Cc3ccccc32)cc1C` [Example 46, {10-[(2,2′-Dimethyl[1,1′-biphenyl]-4-yl)carbonyl]-10,11-dihydro-5H-pyrrolo[2,1-c][1,4]benzodiazepin-3-yl}[4-(2-hydroxyethyl)-1-piperazinyl]methanone], the inhibition at 0.1 µM turned out to be 97%.

Take `COc1cc2c(cc1OC)N(C(=O)c1ccc(-c3ccccc3OC)c(C)c1)Cc1ccc(C(=O)N(C)C[C@H](O)[C@@H](O)[C@H](O)[C@H](O)CO)n1C2` [Example 37, 7,8-Dimethoxy-10-[(2′-methoxy-2-methyl-[1,1′-biphenyl]-4-yl)carbonyl]-10,11-dihydro-5H-pyrrolo[2,1-c][1,4]benzodiazepine-3-carboxylic acid methyl-[(2S, 3R, 4R, 5R)-2,3,4,5,6-pentahydroxy-hexyl)-amide]: the inhibition at 0.1 µM stood at 53%.

Take `O=C(c1ccc2n1Cc1ccccc1N(C(=O)c1ccc(-c3cccc4ccccc34)cc1Cl)C2)N1CCN(CCO)CC1` [Example 25, 2-{4-[10-{[2-Chloro-4-(naphthalen-1-yl)phenyl]carbonyl}-(10,11-dihydro-5H-pyrrolo[2,1-c][1,4]benzodiazepin-3-yl)carbonyl]piperazine-1-yl}-1-hydroxyethane]: the inhibition at 0.1 µM was found to be 20%.

Consider `COc1ccccc1-c1ccc(C(=O)N2Cc3ccc(C(=O)N4CCN(CCO)CC4)n3Cc3ccccc32)cc1OC` [Example 43, {10-[(2,2′-Dimethoxy[1,1′-biphenyl]-4-yl)carbonyl]-10,11-dihydro-5H-pyrrolo[2,1-c][1,4]benzodiazepin-3-yl}[4-(2-hydroxyethyl)-1-piperazinyl]methanone], for which the inhibition at 0.1 µM was found to be 75%.

Staying with this assay, now noted: value printed in parentheses, read-out: OT (IC50).
`Cc1cc(C(=O)N2Cc3ccc(C(=O)N(C)C[C@@H]4OC(=O)O[C@H]4[C@H](O)[C@H]4COC(=O)O4)n3Cc3ccccc32)ccc1-c1ccccc1C(F)(F)F` [Example 12, N-[((4S,5S)-5-{(R)-Hydroxy[(4R)-2-oxo-1,3-dioxolan-4-yl]methyl}-2-oxo-1,3-dioxolan-4-yl)methyl]-N-methyl-10-{[2-methyl-2′-(trifluoromethyl)[1,1′-biphenyl]-4-yl]carbonyl}-10,11-dihydro-5H-pyrrolo[2,1-c]benzodiazepine-3-carboxamide]: the pIC50 is 8.37.

With `Cc1cc(C(=O)N2Cc3ccc(C(=O)N(CCO)CCO)n3Cc3ccccc32)ccc1-c1ccccc1C(F)(F)F` [Example 1, 10-[(2-Methyl-2′-trifluoromethyl-[1,1′-biphenyl]-4-yl)carbonyl]-10,11-dihydro-5H-pyrrolo[2,1-c][1,4]benzodiazepine-3-carboxylic acid bis-(2-hydroxy-ethyl)-amide], the pIC50 was 8.86.

As to `COc1cc(C(=O)N2Cc3ccc(C(=O)N(C)CC(O)CO)n3Cc3ccccc32)ccc1-c1ccccc1C(F)(F)F` (stereo not shown) [Example 21, N-(2,3-Dihydroxypropyl)-10-{[2-methoxy-2′-trifluoromethyl-[1,1′-biphenyl]-4-yl]carbonyl}-N-methyl-10,11-dihydro-5H-pyrrolo[2,1-c][1,4]benzodiazepine-3-carboxamide], the pIC50 is 8.76.

With `Cc1cc(C(=O)N2Cc3ccc(C(=O)N(C)CC(O)CO)n3Cc3ccccc32)ccc1-c1ccccc1C(F)(F)F` (stereo not shown) [Example 2, 10-[(2-Methyl-2′-trifluoromethyl-[1,1′-biphenyl]-4-yl)carbonyl]-10,11-dihydro-5H-pyrrolo[2,1-c][1,4]benzodiazepine-3-carboxylic acid (2,3-dihydroxy-propyl)-methyl-amide], the pIC50 was 8.51.

One may read the inhibition as the share of the control response that was lost under treatment. As a reminder, the pIC50 is the IC50 on a negative log10 scale, so that one unit is a factor of ten.
